The target in data set [1] is T1, Amine oxidase [flavin-containing] A (Homo sapiens, UniProt P21397).
T1 sequence (P21397 whole entry): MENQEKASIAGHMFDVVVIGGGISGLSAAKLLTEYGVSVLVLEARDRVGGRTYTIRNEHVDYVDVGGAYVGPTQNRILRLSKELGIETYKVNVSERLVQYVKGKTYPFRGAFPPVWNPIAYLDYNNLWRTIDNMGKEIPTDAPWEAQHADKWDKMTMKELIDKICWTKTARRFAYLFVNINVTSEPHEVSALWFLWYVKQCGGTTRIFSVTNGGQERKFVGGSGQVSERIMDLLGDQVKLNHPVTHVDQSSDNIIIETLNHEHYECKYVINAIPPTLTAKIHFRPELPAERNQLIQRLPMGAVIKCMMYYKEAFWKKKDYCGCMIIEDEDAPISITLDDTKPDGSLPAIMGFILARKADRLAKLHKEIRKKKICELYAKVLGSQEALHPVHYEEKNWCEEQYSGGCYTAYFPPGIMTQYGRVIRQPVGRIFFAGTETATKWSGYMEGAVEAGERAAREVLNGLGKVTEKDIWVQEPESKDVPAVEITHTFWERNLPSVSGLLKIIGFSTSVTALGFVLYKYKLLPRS

For data set [2], the target named is T2, Lysine-specific histone demethylase 1A (Homo sapiens, UniProt O60341). The following applies: 10 uM.
The target in data set [3] is T3, Amine oxidase [flavin-containing] B (Homo sapiens, UniProt P27338).
T3 sequence (P27338 whole entry): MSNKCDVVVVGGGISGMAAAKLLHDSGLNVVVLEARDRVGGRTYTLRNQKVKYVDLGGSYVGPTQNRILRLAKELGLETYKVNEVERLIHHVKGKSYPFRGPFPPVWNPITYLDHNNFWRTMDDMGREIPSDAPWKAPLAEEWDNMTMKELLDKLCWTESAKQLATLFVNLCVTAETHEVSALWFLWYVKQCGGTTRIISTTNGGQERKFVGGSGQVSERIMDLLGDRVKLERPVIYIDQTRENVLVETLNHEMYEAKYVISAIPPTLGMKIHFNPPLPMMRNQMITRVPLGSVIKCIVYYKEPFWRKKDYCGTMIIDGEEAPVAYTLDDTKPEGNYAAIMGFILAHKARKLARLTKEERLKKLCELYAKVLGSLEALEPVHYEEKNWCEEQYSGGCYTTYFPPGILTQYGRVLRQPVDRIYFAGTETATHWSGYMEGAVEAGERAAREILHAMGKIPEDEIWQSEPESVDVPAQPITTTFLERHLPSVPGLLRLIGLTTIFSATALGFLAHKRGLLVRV
Briefly: Inhibition of MAO-B (unknown origin) using beetle luciferin derived luminogenic substrate preincubated for 15 mins followed by substrate addition measured after 60 mins by MAO-Glo assay.

The next data set relates to THP-1. Briefly: Inhibition of colony formation in human THP1 cells at 0.5 to 50 uM after […] by light microscopic method. It is filed as functional, cell-based.
Data set [4] deals with T2, Lysine-specific histone demethylase 1A.
The target of data set [5] is T4, MAO-A (Homo sapiens, UniProt P21397).
T4 sequence (P21397 whole entry): T1 sequence (P21397 whole entry)
Briefly: Inhibition of MAO-A (unknown origin) at 1 uM using beetle luciferin derived luminogenic substrate preincubated for 15 mins followed by substrate addition measured after 60 mins by MAO-Glo assay relative to control. The following applies: MAO-A enzyme (unknown origin), probe beetle luciferin derived luminogenic substrate.

Data set [6] concerns the target T5, MAO-B (Homo sapiens, UniProt P27338).
T5 sequence (P27338 whole entry): T3 sequence (P27338 whole entry)
Briefly: in vitro. The following applies: MAO-B enzyme (unknown origin), probe beetle luciferin derived luminogenic substrate.

Data set [7] addresses T3, Amine oxidase [flavin-containing] B. Briefly: (§1) Inhibition of MAO-B (unknown origin) at 10 uM using beetle luciferin derived luminogenic substrate preincubated for 15 mins followed by substrate addition measured after 60 mins by MAO-Glo assay relative to control. The following applies: 1 h, 10 µM.
Data set [8] has as its target T4, MAO-A. The experiment in a line: in vitro. The following applies: MAO-A enzyme (unknown origin), probe beetle luciferin derived luminogenic substrate.
In data set [9] the target is T5, MAO-B. The description is as §1. To be noted: MAO-B enzyme (unknown origin), probe beetle luciferin derived luminogenic substrate.
Data set [10] addresses T2, Lysine-specific histone demethylase 1A. The following applies: 100 uM.
The target is the same in data set [11]. This is another data set of the same source.

The structures appear in SMILES notation. pIC50: −log10 of the molar value. Active and inactive are the calls of the source. No cut-off for these calls is given here.

As usually defined, the pIC50 is the IC50 on a negative log10 scale, so that one unit is a factor of ten. Higher therefore signals a low IC50. In general, inhibition refers to the percentage by which the read-out fell short of the control. With `C[C@@H]1[C@H](NCc2cccc([N+](=O)[O-])c2)[C@H]1c1ccccc1` (relative stereo), the negative-log IC50 (pIC50) is 6.63 in [1] and 5.66 in data set [3]. Moreover, the inhibition result (in [2]; with THP-1) was “inactive” in each case. For the same molecule, the Tm in data set [4] stood at 45.6 °C. `Fc1ccc(CN[C@H]2C[C@@H]2c2ccccc2)cc1` (relative stereo) gave an inhibition at 1 h, 1 µM against MAO-A [5] of 27%. For the molecule `CC(C)(C)c1ccc(CN[C@H]2C[C@@H]2c2ccccc2)cc1` (relative stereo), the inhibition at 1 h, 1 µM at MAO-A [5] turned out to be 22%; at MAO-B [6], 27%. `c1ccc(COc2cccc(CN[C@H]3C[C@@H]3c3ccccc3)c2)cc1` (relative stereo): the figures for the inhibition at 1 h, 1 µM against MAO-A [5] and on MAO-B [6] were 60% and 23%, respectively.

As for `Ic1ccccc1CN[C@H]1C[C@@H]1c1ccccc1` (relative stereo), the inhibition at 1 h, 1 µM at MAO-A [5] is 12%; at MAO-B [6], 16%. Turning to `COc1cccc(CN[C@H]2C[C@@H]2c2ccccc2)c1` (relative stereo), in [7], the “inhibition (INH)” value is “Not Active”. At MAO-A [8], this molecule returned an inhibition at 1 h, 10 µM of 79%.

Consider `Clc1cc(Cl)cc(CN[C@H]2C[C@@H]2c2ccccc2)c1` (relative stereo), for which the inhibition at 1 h, 1 µM against MAO-A [5] stood at 30%; against MAO-B [6] it was 17%. On to `NC(=O)c1cccc(CN[C@H]2C[C@@H]2c2ccccc2)c1` (relative stereo), for which the pIC50 is 4.55 in [1] and 4.02 in data set [3]. As for `Fc1ccccc1CN[C@H]1C[C@@H]1c1ccccc1` (relative stereo), the inhibition at 1 h, 10 µM on MAO-B [9] was 16%; on MAO-A [8], 20%. Turning to `COc1ncccc1CN[C@H]1C[C@@H]1c1ccccc1`, the “inhibition (INH)” value in data set [7] is reported as “Not Active”. On MAO-A [5], `Fc1cc(Br)ccc1CN[C@H]1C[C@@H]1c1ccccc1` (relative stereo) showed an inhibition at 1 h, 1 µM of 27%. For `C[C@@H]1[C@@H](N)[C@H]1c1ccccc1.Cl` (relative stereo), the “inhibition (INH)” value in [7] is recorded as “Not Active”. Further, the inhibition result in data set [10] was “inactive”. In turn, `O=[N+]([O-])c1ccc(N[C@H]2C[C@@H]2c2ccccc2)o1` (relative stereo) yielded an inhibition at 1 h, 1 µM on MAO-A [5] of 27%. For `Brc1ccc(COc2ccc(CN[C@H]3C[C@@H]3c3ccccc3)cc2)cc1` (relative stereo), the inhibition at 1 h, 1 µM was 100% against MAO-A [5] and 44% against MAO-B [6]. `Brc1ccc(COc2cccc(CN[C@H]3C[C@@H]3c3ccccc3)c2)cc1` (relative stereo): the inhibition at 1 h, 1 µM against MAO-A [5] was determined as 100%; at MAO-B [6] it was 32%. Regarding `c1ccc(-c2ccc(CN[C@H]3C[C@@H]3c3ccccc3)cc2)cc1` (relative stereo), the inhibition at 1 h, 1 µM came to 93% on MAO-A [5] and 82% against MAO-B [6]. Take `O=[N+]([O-])c1ccc(N[C@H]2C[C@@H]2c2ccccc2)s1` (relative stereo): the inhibition at 1 h, 1 µM was determined as 94% on MAO-A [5] and 79% on MAO-B [6]. Take `C[C@@H]1[C@H](N)[C@H]1c1ccccc1.Cl` (relative stereo): the “inhibition (INH)” value in data set [7] is “Not Active”. Also, the inhibition result in [10] is “inactive”. In the case of `O=[N+]([O-])c1ccccc1CN[C@H]1C[C@@H]1c1ccccc1` (relative stereo), the inhibition at 1 h, 1 µM at MAO-A [5] was 18%; at MAO-B [6], 15%. With `COc1ccccc1CN[C@H]1[C@@H](C)[C@@H]1c1ccccc1` (relative stereo), the “inhibition (INH)” value in data set [7] is “Not Active”. The IC50 entry in data set [11] is listed as “Not Active”. Also, at MAO-A [8], the inhibition at 1 h, 10 µM was determined as 32%. Take `COc1ccc(CN[C@H]2C[C@@H]2c2ccccc2)cc1` (relative stereo): at MAO-A [5], the inhibition at 1 h, 1 µM stood at 30%. Take `CC(=O)Nc1ccc(CN[C@H]2C[C@@H]2c2ccccc2)cc1` (relative stereo): the figures for the inhibition at 1 h, 10 µM against MAO-B [9] and at MAO-A [8] were 17% and 48%, respectively.

`O=[N+]([O-])c1cc(CN[C@H]2C[C@@H]2c2ccccc2)ccc1Cl` (relative stereo): the inhibition at 1 h, 10 µM at MAO-B [9] turned out to be 13%; at MAO-A [8] it was 100%. In the case of `CCc1ccc(CN[C@H]2C[C@@H]2c2ccccc2)cc1` (relative stereo), the inhibition at 1 h, 1 µM against MAO-A [5] stood at 33%; against MAO-B [6], 12%. Regarding `Fc1cccc(CN[C@H]2C[C@@H]2c2ccccc2)c1` (relative stereo), the inhibition at 1 h, 10 µM on MAO-B [9] worked out at 20%; against MAO-A [8] it was 69%. Taken in the same sequence, the figures for `Brc1ccc(CN[C@H]2C[C@@H]2c2ccccc2)cc1` (relative stereo) were 27% and 43%.

Molecule `COc1ncccc1CN[C@H]1[C@@H](C)[C@@H]1c1ccccc1` (relative stereo) returned an inhibition at 1 h, 10 µM against MAO-B [9] of 14%. Further, the IC50 entry in data set [11] is listed as “Not Active”. Moreover, in [1], the pIC50 was 4.38. As to `COc1ccc(CN[C@H]2C[C@@H]2c2ccccc2)cc1OC` (relative stereo), the “inhibition (INH)” value in [7] was “Not Active”. Besides, the inhibition at 1 h, 10 µM against MAO-A [8] turned out to be 69%.

Take `c1ccc(COc2ccc(CN[C@H]3C[C@@H]3c3ccccc3)cc2)cc1` (relative stereo): the inhibition at 1 h, 1 µM is 93% against MAO-A [5] and 52% against MAO-B [6]. Regarding `Brc1ccccc1CN[C@H]1C[C@@H]1c1ccccc1` (relative stereo), the values for the inhibition at 1 h, 10 µM against MAO-B [9] and on MAO-A [8] were 24% and 47%, respectively.

Turning to `COc1ccccc1CN[C@H]1C[C@@H]1c1ccccc1` (relative stereo), the inhibition at 1 h, 10 µM on MAO-B [9] was found to be 36%.

`Brc1cccc(CN[C@H]2C[C@@H]2c2ccccc2)c1` (relative stereo) showed an inhibition at 1 h, 1 µM against MAO-A [5] of 38%. Same read-out and setting: the value for `Cc1ccc(CN[C@H]2C[C@@H]2c2ccccc2)cc1Cl` (relative stereo) was 69%. The molecule `CN(C)c1ccc(CN[C@H]2C[C@@H]2c2ccccc2)cc1` (relative stereo) came in with an inhibition at 1 h, 1 µM against MAO-A [5] of 30%.

As to `C[C@H]1[C@@H](N)[C@H]1c1ccccc1.Cl` (relative stereo), the “inhibition (INH)” value in data set [7] is reported as “Not Active”. For the same molecule, the inhibition result in data set [10] is “inactive”. `Clc1ccccc1CN[C@H]1C[C@@H]1c1ccccc1` (relative stereo): the inhibition at 1 h, 10 µM is 21% at MAO-B [9] and 62% at MAO-A [8]. In the case of `Fc1ccc(CN[C@H]2C[C@@H]2c2ccccc2)cc1F` (relative stereo), at MAO-A [5], the inhibition at 1 h, 1 µM is 43%. For the molecule `C[C@@H]1[C@H](NCc2ccc(Cl)cc2)[C@H]1c1ccccc1` (relative stereo), the negative logarithm of the IC50 (pIC50) is 6.51 in data set [1] and 4.98 in data set [3]. Further, the inhibition entry (in [2]; in the data set on THP-1) was “inactive” each time. For the same molecule, the Tm in data set [4] stood at 47.9 °C. Regarding `c1ccc(CN[C@H]2C[C@@H]2c2ccccc2)cc1` (relative stereo), the inhibition at 1 h, 10 µM on MAO-B [9] was 33%. Moreover, the negative logarithm of the IC50 (pIC50) in data set [1] is 5.24. For the molecule `Clc1ccc(CN[C@H]2C[C@@H]2c2ccccc2)c(Cl)c1` (relative stereo), the inhibition at 1 h, 10 µM at MAO-B [9] amounted to 11%; at MAO-A [8], 73%. For `C[C@@H]1[C@H](NCc2ccc(Cl)cc2Cl)[C@H]1c1ccccc1` (relative stereo), the values for the pIC50 in data set [1] and in data set [3] were 6.11 and 4.25, respectively. Moreover, the inhibition result in data set [10] was “inactive”. With `c1ccc(-c2cccc(CN[C@H]3C[C@@H]3c3ccccc3)c2)cc1` (relative stereo), the “inhibition (INH)” value in [7] is given as “Not Active”. In data set [1], this molecule showed a negative logarithm of the IC50 (pIC50) of 6.79. Turning to `Cn1c(CN[C@H]2C[C@@H]2c2ccccc2)cc2ccccc21` (relative stereo), the inhibition at 1 h, 10 µM at MAO-B [9] was found to be 14%; at MAO-A [8] it was 54%. For the molecule `c1ccc([C@H]2C[C@@H]2NCc2cccnc2)cc1` (relative stereo), the “inhibition (INH)” value in [7] was “Not Active”.

Values taken from ChEMBL document CHEMBL4251603, “Structure-activity studies on N-Substituted tranylcypromine derivatives lead to selective inhibitors of lysine specific demethylase 1 (LSD1) and potent inducers of leukemic cell differentiation” (Eur J Med Chem, 2018).
